According to patent US5169769A, “Method of hydroxylating substituted 3-aminopyridinones using mammalian tissue” (Merck & Co., Inc., priority 1991, dated 1992):

Molecular target: T1, recombinant HIV reverse transcriptase (HIV RTR) (Human immunodeficiency virus type 1 group M subtype B, UniProt P04585)
T1 construct: recombinant HIV reverse transcriptase (HIV RTR)
Assay: Reverse Transcriptase Assay: incorporation of tritiated deoxyguanosine monophosphate into acid-precipitable cDNA
Type: biochemical
Details: purified HIV RTR; poly r(C).oligo d(G)12-18 and dGTP at about Km; 37° C. for 45 minutes; read-out: calculated IC50
Protocol: Reverse Transcriptase Assay
The assay measures the incorporation of tritiated deoxyguanosine monophosphate by recombinant HIV reverse transcriptase (HIV RTR) (or other RT) into acid-precipitable cDNA at the Km values of dGTP and poly r(C).cndot.oligo d(G)12-18. Compounds (I) and (II) inhibit this incorporation.
Thirty uL of a reaction mixture containing equal volumes of: 500 mM Tris.cndot.HCl (pH 8.2), 300 mM MgCl2, 1200 mM KCl, 10 mM DTT, 400 μg/mL poly r(c).cndot.oligo d(G) [prepared by dissolving 1.5 mg (25 U) poly r(C).cndot.oligo d(G) in 1.5 ml sterile distilled H2 O and diluting to 400 μg/ml], 0.1 μCi/μl [^3 H] dGTP, 160 μM dGTP, were added to 10 μl sterile distilled H2 O, 2.5 μl of potential inhibitor. Ten μL of 3.2 nM purified HIV RTR were added to start the reaction. The mixture was incubated at 37° C. for 45 minutes.
After incubation was complete, the tubes were cooled in ice for 5 minutes. Ice-cold 13% TCA containing 10 mM NaPPi (200 μl) was added and the mixture incubated on ice for 30 minutes. The precipitated cDNA was removed by filtration using presoaked glass filters [TCA, NaPPi ]. The precipitate was then washed with 1N HCl, 10 mM NaPPi. The filter discs were then counted in a scintillation counter. […]
Compounds (I) and (II) were evaluated using the methodology described above.

Compound | IC50 [nM]
Cc1[nH]c(=O)c(NCc2nc3c(C)ccc(C)c3o2)cc1C(C)O (centres unmarked) [Compound (I), 3-[(4,7-dimethylbenzoxazol-2-yl)methylamino]-5-(1-hydroxyethyl)-6-methyl-2(1H)-pyridinone] | ~405
CCc1cc(NCc2nc3c(C)ccc(C)c3o2)c(=O)[nH]c1CO [Compound (II), 3-[(4,7-dimethylbenzoxazol-2-yl)methylamino]-5-ethyl-6-hydroxymethyl-2(1H)-pyridinone] | ~33
